Measured values published in patent US20190192622A1, “Use of Antisecretory Factor (AF) in Glioblastoma Treatment” (LANTMÄNNEN AS-FAKTOR AB, priority 2012, published 2019).
Where a SMILES comes first, the peptide text is derived from it.

Tests used:
[1] = tested on: RG2, clone N32 glioblastoma in the right brain hemisphere; test: Intracranial pressure in rats with implanted RG2-N32 glioblastoma after nasal peptide; type: in vivo, Fisher 344 rats
Excerpt: (§1) Adult male Fisher 344 rats were purchased from Charles River, Germany. The body weight at the time for the experiments was 230-250 g. The animals had water and pelleted feed ad libitum. Permission to the experiments was granted by the Regional Animal Experiments Ethical Committee, and national and EU rules were followed.
Cultured cells of the established glioma cell line RG2, clone N32, were stereotactically deposited in the right striatum of the brain of adult Fisher 344 rats (A. T. Aas, A Brun, C. Blennow, S. Strömblad and L. G. Salford (1995). The RG2 glioma model. J. Neuro-Oncology 23, 175-183; R. F. Barth and B. Kauer ([…]). Rat brain tumor models in experimental neuro-oncology: the C6, 9L, T9, RG2, F98, BT4C, RT-2 and CNS-1 gliomas. (J Neuro-Oncology 94, 299-312). After 18-22 days, a tumor, fulfilling established criteria for glioblastoma, was demonstrable in the right hemisphere, invading adjacent brain parenchyma (FIGS. 1, 2). […] FIG. 4 is showing the implantation of pressure sensors (Samba 3200; Samba Sensors A B, V. Frölunda, Sweden), one in each hemisphere. The intracranial pressure was measured to be in the range of 25-50 mm Hg (FIG. 4), that means strikingly elevated as compared to normally 5.3±2.1 mm Hg (H.-A. Hansson, M. Al-Olama, E. Jennische, K. Gatzinsky and S. Lange (2012). The peptide AF-16 and the AF protein counteract intracranial hypertension. Acta Neurochir. Suppl. 114, 377-382). Eventually, the intracranial pressure exceed 50-60 mm Hg, resulting in herniation of the brain, dislocations and impaired blood circulation, and death (FIG. 5).
The intracranial pressure was raised both in the tumor affected right side and in the contralateral left side, and the pressure dropped to the same extent in either brain hemisphere. Concomitantly, any demonstrable neurological impairment resolved.
Cultured cells of the established glioma cell line RG2, clone N32, were stereotactically deposited in the right striatum of the brain of adult Fisher 344 rats as described in
After 18-22 days a tumor, fulfilling established criteria for glioblastoma, was demonstrable in the right hemisphere, invading adjacent brain parenchyma.
A single dose of the peptide AF-6 (1-2 mg/kg body weight, dissolved in water) was instilled in the nose of a Fisher rat with an experimental glioblastoma tumor of the RG2-N32 origin at day 21 after implantation. About 15 min later the intracranial pressure started to dropped from 25-27 mm Hg to 17.7 mm Hg (FIG. 7).

[2] = tested on: GL261 glioma tumor in the right brain hemisphere; test: Intracranial / interstitial fluid pressure in mice with GL261 glioma after nasal peptide; type: in vivo, C57/BI/6 mice
Excerpt: Adult C57/BI/6 mice were purchased from B & K, Sollentuna, Sweden. The body weight was 23 g and the animals had water and pelleted feed ad libitum. Permission to the experiments was granted by the Regional Animal Experiments Ethical Committee, and national and EU rules were followed.
The GL261 mouse glioma cell line was of C57/BI/6 origin and cultured in the Rausing laboratory, BMC, Lund University, according to an established protocol (K. Enell Smith, S. Fritzell, W. Badn, S. Eberstål, S. Janelidze, E. Visse, A. Darabi and P. Siesjö (2008). Cure of established GL261 mouse gliomas after combined immunotherapy with GM-CSF and IFNγ is mediated by both CD8^+ and CD4^+ T-cells. Int. J. Cancer 124, 630-637).
C57/BI/6 mice had each 5.000 GL261 glioma cells in 5 μL tissue culture medium stereo tactically deposited in deep brain structure in the right brain hemisphere. An expanding tumor was formed and had 22 days later a diameter of 3-5 mm.
The six AA peptide AF-6 (SEQ ID NO:2) (manufactured by solid phase synthesis by K J Ross-Petersen ApS, Copenhagen, with >95% purity and TFA as counter ion) was selected to be investigated for its ability to reduce the increased intracranial pressure (ICP) inevitably evolving at this stage of tumor development.
A mouse with a GL261 tumor in the right brain hemisphere was anaesthetized with isofluran and positioned in a stereotactic holder. […]

[3] = tested on: RG2, clone N32 glioblastoma tumor cell nuclei; test: Uptake of tracer doxorubicin into glioblastoma cell nuclei of rats (fluorescence microscopy); type: in vivo, Fisher 344 rats
Excerpt: The aim of this experiment was to investigate if treatment with AF-16 increased the penetration of a marker through the tumor cells membrane and subsequent entrance and distribution in their nuclei. Doxorubicin was selected as a tracer for the reason that it is an established cytotoxic drug with a molecular mass of 543.52 g/mol, i.e. being considered as a fairly low molecular mass substance. Further, doxorubicin has a red color and when exposed to light emits a red fluorescence. Doxorubicin is strongly intercalating with the DNA in cell nuclei. This means that if a red fluorescence is observed in a cell nucleus the marker has been reached its target, the tumor cells. It is known that glioblastoma cells, in humans as in animals, prevent the entrance of chemotherapeutic substances into the tumor cells, and consequently no beneficial effects are attained. The most important barrier to the drug is prevailing at the surface of the tumor cells.
as §1
Cultured cells of the established glioma cell line RG2, clone N32, were stereotactically deposited in the right striatum of the brain of adult Fisher 344 rats as described in Example 1. After 20 days a tumor, fulfilling established criteria for being a glioblastoma, was present in the right brain hemisphere of either rat.
AF-16, 1 mg per kg body weight, dissolved in water and administrated as a single dose in a volume of 10 μL, was instilled in the nostrils of anaesthetized Fisher rats. […] Cryostat microtome sections were prepared of the brains, and examined with the aid of fluorescence microscope.
That means that very few doxorubicin molecules entered the tumor cells.

[4] = tested on: experimentally induced glioblastoma tumor cell nuclei; test: Uptake and binding of doxorubicin to tumor cell nuclei in mice with experimentally induced glioblastoma; type: in vivo; conditions: additional experiments
[5] = AF-16 1 mg per kg body weight nasally, 1 h before i.v. doxorubicin 10 mg per kg, sacrificed 30 min later
[6] = AF-16 4 mg/kg bw nasally 1 h prior to i.v. doxorubicin 10 mg/kg bw, brains removed 30 min later
[7] = single nasal instillation 1-4 mg/kg body weight

With `C[C@@H](O)[C@H](NC(=O)[C@H](CCCCN)NC(=O)[C@H](CO)NC(=O)[C@H](Cc1c[nH]cn1)NC(=O)[C@@H](N)CS)C(=O)N[C@@H](CCCNC(=N)N)C(=O)O` [AF-6, CHSKTR] (H-CHSKTR-OH) the side effects ([1]; single nasal dose 1-2 mg/kg body weight) was “No side effects could be disclosed” and the side effects ([2]; nasal 5 mg per kg body weight) was “No side effects were noticed”.
“VCHSKTRSNPENNVGL (Variant (2)..(2) C may be replaced by S; Variant (3)..(3) H may be replaced by R or K; Variant (4)..(4) S may be replaced by L; Variant (6)..(6) T may be replaced by A) [AF-16, a peptide composed of the amino acids …, fragment of antisecretory factor protein]” was tested, and the “doxorubicin staining of the tumor cell nuclei” value [3, 5] was “strong red staining”, the “proportion of tumor cells labeled by doxorubicin” value [3, 5] was “a large proportion of these cells were labeled” and the “frequency of doxorubicin-stained tumor cell nuclei vs vehicle pretreatment” value [3, 6] was “increased”. For the same molecule, the “intensity of doxorubicin staining of tumor cell nuclei vs vehicle pretreatment” value [3, 6] was “increased”, the “effect on uptake of doxorubicin by tumor cell nuclei (summary statement)” value ([3]; animals with experimentally induced glioblastoma) was “efficiently improved the uptake” and the “effect on raised intracranial pressure (summary statement)” value ([1]; animals with experimentally induced glioblastoma, tumor and contralateral hemisphere) was “lower the raised intracranial pressure”. For the same molecule, the “start of intracranial pressure decrease after nasal administration” value ([1]; nasal AF-16 4 mg/kg bw) was “about 12 minutes”, the intracranial pressure attained ([1]; nasal AF-16 4 mg/kg bw, in half an hour, either brain hemisphere) was roughly 20 mm Hg and the “duration of the beneficial effects on intracranial pressure” value [1, 7] was 4 to 6 h. For the same molecule, the “time to reduction of the high intracranial pressure” value [1, 7] was 15 to 30 min, the “intracranial pressure after reduction (acceptable level)” value ([1]; single nasal instillation 1-4 mg/kg body weight in 10 μL water, baseline 25-50 mm Hg, both hemispheres) was no more than 20 mm Hg and the demonstrable neurological impairment ([1]; single nasal instillation 1-4 mg/kg body weight, concomitant with pressure drop) was “resolved”. For the same molecule, the “effect on raised intracranial pressure (statement in words)” value ([2]; mice with experimentally induced glioblastoma) was “reduced the high intracranial pressure” and the “effect on uptake and binding of doxorubicin to tumor cell nuclei” value [4] was “facilitated the uptake and binding of doxorubicin to tumor cell nuclei”.
